Test results: US20130109620A1, “BALAGLITAZONE COMPOSITIONS AND METHODS” (RHEOSCIENCE A/S, priority 2009, published 2013)
Counter-ions that a name gives are not always drawn. Like-named read-outs stand apart in the source and are kept apart here.

How the values were obtained:
[1] = tested on: T2D patients on stable insulin therapy; experiment: 26-week clinical study: lower leg volume by volume of water displacement (VWD); format: in vivo, human; conditions: 26 weeks
Protocol: (§1) All tablets were contained in an identical capsule. Subjects, study-site personnel, and sponsors were all blinded.
Lower leg volume of both legs was determined using the volume of water displacement (“VWD”) method at visits 2 and 8, using Partial Leg Baseline Volumetric Edema Gauges (26).

[2] = subjects on stable insulin therapy, 24-week period, reference (28), cited from earlier work
[3] = tested on: T2D patients on stable insulin therapy; experiment: 26-week clinical study: adverse events and tolerability; conditions: for subjects with AEs of special interest (strain on the heart or bone fractures): placebo 12%; for subjects who withdrew due to an AE: placebo 15%
[4] = tested on: T2D patients on stable insulin therapy; experiment: 26-week clinical study: body composition and total body BMD by DXA; format: in vivo, human; conditions: 26 weeks
Protocol: All tablets were contained in an identical capsule. Subjects, study-site personnel, and sponsors were all blinded. Body composition was measured by Dual Energy X-ray Absorptiometry (“DXA”) on visits 2 and 8, in which total body lean (“LTM”), fat tissue mass (“FTM”), and bone mineral density (“BMD”) were measured. Subjects were instructed to fast, beginning at 10 PM the night before body composition measurements. […] The scans were conducted using Lunar DPX (GE Healthcare Worldwide), Hologic™ (Hologic™, Hologic (UK) Limited, UK), or Norland (Norland Medical Systems, Inc.) whole body scanners, and each individual was scanned with the same scanner at both visits.

[5] = tested on: T2D patients on stable insulin therapy; experiment: 26-week clinical study: glycemic control (HbA1c, FSG, 7-point glucose, serum insulin, insulin dose); format: in vivo, human; conditions: for HbA1c level decrease compared to placebo / post-prandial glucose reduction (7-point glucose test) compared to placebo / fasting serum glucose (FSG) reduction compared to placebo: 26 weeks
From the text: Subjects were required to meet the following criteria to be included in the study: type 2 diabetes mellitus being diagnosed at least three months earlier according to the 1999 World Health Organisation criteria; age ≧18 years; body mass index (“BMI”)≧25 kg/m^2; HbA1c≧7%; and treatment with insulin on a stable dose of at least 30 U/day (±4 U/day), for at least 75 days, although insulin adjustments to resolve short term acute disease were permitted. […] All tablets were contained in an identical capsule. Subjects, study-site personnel, and sponsors were all blinded. One screening visit was conducted four weeks before randomization, and at week zero, subjects meeting the inclusion and exclusion criteria were assessed for safety. Subjects visited the clinics at the screening visit, at baseline, and at weeks 4, 8, 12, 16, 20 and 26. At each visit, fasting blood samples were collected for analysis of glycemic control, lipids, and clinical chemistry. All laboratory analyses were performed by a central laboratory. Subjects were instructed to keep their usual diet. They were supplied with a plasma glucose meter and instructed regarding how to obtain 7-point plasma glucose profiles. The values of the 7-point measurement performed within the last week before visits 2, 3, 4, 5, 6, 7 and 8 were included in the study. The 7-point plasma glucose profile consisted of glucose levels before each meal (breakfast, lunch, and dinner), 90 minutes after the start of each of those meals, and at bedtime.

[6] = tested on: T2D patients on stable insulin therapy; experiment: 26-week clinical study: serum biochemistry (ALP, lipids, NT-proBNP); format: in vivo, human; conditions: 26 weeks
Protocol: All tablets were contained in an identical capsule. Subjects, study-site personnel, and sponsors were all blinded. One screening visit was conducted four weeks before randomization, and at week zero, subjects meeting the inclusion and exclusion criteria were assessed for safety. Subjects visited the clinics at the screening visit, at baseline, and at weeks 4, 8, 12, 16, 20 and 26. At each visit, fasting blood samples were collected for analysis of glycemic control, lipids, and clinical chemistry. All laboratory analyses were performed by a central laboratory.

[7] = 26-week clinical study: body weight; format: in vivo, human; conditions: 26 weeks, p<0.0001
From the text: as §1

[8] = tested on: T2D patients on stable insulin therapy; experiment: 26-week clinical study: systolic and diastolic blood pressure; format: in vivo, human; conditions: 26 weeks, placebo −1.7
From the text: as §1
Any abnormalities were registered.

[9] = pioglitazone 45 mg once daily, p<0.0001
[10] = balaglitazone 10 mg once daily, p<0.01
[11] = balaglitazone 20 mg once daily, p<0.0001

## CCc1ccc(CCOc2ccc(CC3SC(=O)NC3=O)cc2)nc1 (racemic) [pioglitazone, [(±)-5-[[4-[2-(5-ethyl-2-pyridinyl)ethoxy]phenyl]methyl]-2,4-]thiazolidinedione monohydrochloride, reference compound]
[1]; pioglitazone 45 mg once daily
  lower leg volume (VWD) compared with placebo: significantly increased lower leg volume
[2]; pioglitazone 30 mg
  weight increase: 2.9 kg
[2]; pioglitazone 45 mg
  weight increase: 3.4 kg
[3]; pioglitazone 45 mg group
  influenza, total number of events: 10
  number of heart failures: 3
  subjects with AEs of special interest (strain on the heart or bone fractures): 25%
  subjects who withdrew due to an AE: 8%
[3]; pioglitazone 45 mg group, out of 102 subjects
  subjects reporting adverse events: 75 subjects
[3]; pioglitazone 45 mg group, placebo 3%
  subjects reporting influenza: 9%
[3]; pioglitazone 45 mg group, placebo 10%
  subjects reporting nasopharyngitis: 3%
[4]; pioglitazone 45 mg once daily, no significant change
  total body bone mineral density (TB-BMD) compared with placebo: trend toward loss of bone
[5]; [9]
  HbA1c level decrease compared to placebo: −1.22%
  post-prandial glucose reduction (7-point glucose test) compared to placebo: -2.6 mmol/L
[5]; pioglitazone 45 mg once daily, p<0.05
  fasting serum glucose (FSG) reduction compared to placebo: -1.4 mmol/L
[6]; pioglitazone 45 mg once daily
  serum NT-proBNP compared to placebo: significant increase
[7]; pioglitazone 45 mg once daily
  body weight increase compared to placebo: 4.5 kg
[8]; pioglitazone 45 mg once daily, SE 0.9
  systolic blood pressure reduction: −3.0 mmHg
[8]; pioglitazone 45 mg once daily, SE 1.5
  diastolic blood pressure reduction: −3.9 mmHg

## Cn1c(COc2ccc(CC3SC(=O)NC3=O)cc2)nc2ccccc2c1=O (stereo not shown) [balaglitazone, 5[4-(3-methyl-4-oxo-3,4-dihydroquinazolin-2-ylmethoxy)-benzyl]-thiazolidine-2,4-dione]
[1]; balaglitazone 10 mg once daily
  lower leg volume (VWD) compared with placebo: no significant increase in leg volume
[1]; balaglitazone 20 mg once daily
  lower leg volume (VWD) compared with placebo: significantly increased lower leg volume
[3]; balaglitazone 10 mg and 20 mg, 26 weeks
  tolerability throughout the study: well-tolerated
[3]; balaglitazone 10 mg group
  heart failure, peripheral oedema and myocardial infarction compared to the remaining groups: numerically lower
  number of heart failures: 0
  percentage of serious adverse events: 6%
  subjects with AEs of special interest (strain on the heart or bone fractures): 10%
  subjects who withdrew due to an AE: 16%
[3]; balaglitazone 10 mg group, out of 99 subjects
  subjects reporting adverse events: 81 subjects
[3]; balaglitazone 20 mg group
  percentage of serious adverse events: 11%
  subjects with AEs of special interest (strain on the heart or bone fractures): 19%
  subjects who withdrew due to an AE: 17%
[3]; balaglitazone 20 mg group, out of 99 subjects
  subjects reporting adverse events: 77 subjects
[3]; balaglitazone 20 mg group, the only fracture in the study
  number of fractures observed: one
[4]; balaglitazone 10 mg and 20 mg groups
  total body bone mineral density (TB-BMD) compared to placebo: neither of the balaglitazone groups showed any indication of bone loss
[4]; balaglitazone 10 mg once daily
  whole body fat accumulation compared to pioglitazone 45 mg: trend toward lower fat accumulation
[4]; [10]
  fat mass gain in the legs compared to the pioglitazone group: significantly less fat mass
[5]; balaglitazone 10 mg dose
  glucose-lowering capabilities compared to pioglitazone 45 mg: equipotent
[5]; balaglitazone 10 mg once daily, p<0.0001
  HbA1c level decrease compared to placebo: −0.99%
[5]; [10]
  post-prandial glucose reduction (7-point glucose test) compared to placebo: -1.6 mmol/L
[5]; balaglitazone 10 mg once daily, p=0.01
  fasting serum glucose (FSG) reduction compared to placebo: -1.4 mmol/L
[5]; [11]
  HbA1c level decrease compared to placebo: −1.11%
  post-prandial glucose reduction (7-point glucose test) compared to placebo: -2.5 mmol/L
[5]; balaglitazone 20 mg once daily, p<0.001
  fasting serum glucose (FSG) reduction compared to placebo: -1.8 mmol/L
[6]; balaglitazone 10 mg and 20 mg
  LDL cholesterol levels and total cholesterol: neither LDL cholesterol levels nor total cholesterol changed
[6]; balaglitazone 10 mg and 20 mg, p<0.001 for both groups
  HDL cholesterol levels compared to placebo: significantly increased
[6]; balaglitazone 10 mg once daily
  reduction in serum ALP compared to the pioglitazone 45 mg group: significantly smaller
  serum NT-proBNP compared to placebo: only a trend was observed
[6]; balaglitazone 20 mg once daily
  serum NT-proBNP compared to placebo: significant increase
[6]; balaglitazone 20 mg once daily, p<0.01
  increase in NT-proBNP compared to the pioglitazone 45 mg group: significantly larger
[7]; balaglitazone 10 mg once daily
  body weight increase compared to placebo: 3.1 kg
[7]; balaglitazone 20 mg once daily
  body weight increase compared to placebo: 4.7 kg
[8]; balaglitazone 10 mg once daily, SE 0.9
  diastolic blood pressure reduction: −1.8 mmHg
[8]; balaglitazone 20 mg once daily, SE 1.0
  diastolic blood pressure reduction: −2.2 mmHg
